# Key:
# HCT116 = test: SRB cytotoxicity assay, HCT116; assay type: cell-based; conditions: Homo sapiens, HCT-116; SRB assay, 48 h, mean ± SD; read-out: IC50 Cytotoxicity HCT116
# Excerpt: (§1) The cell lines MDA-MB-231 (No. TCHu227), A549 (No. TCHu150), and HepG2 (No. TCHu72) were obtained from the Cell Bank/Stem Cell Bank, Chinese Academy of Sciences (Shanghai, China). The cell lines DLD-1 (No. CC0507) and HCT116 (No. CC0506) were obtained from the Cell Bank of Cellcook Biotech Co., Ltd. (Guangzhou, China). Cell line HL-7702 (No. BNCC338358) was obtained from Bena Culture Collection (Zhengzhou, China).
# (§2) The human cancer cell lines MDA-MB-231 (breast adenocarcinoma), DLD-1 (colorectal adenocarcinoma), A549 (lung epithelial carcinoma), HCT116 (colorectal adenocarcinoma), HepG2 (hepatocellular carcinoma), and human hepatocyte HL-7702 were cultured in Dulbecco’s modified eagle medium (DMEM, Biological Industries, Beit Haemek, Israel) containing 10% (v/v) fetal bovine serum (FBS, Biological Industries, Beit Haemek, Israel) at 37 °C in a humidified incubator (ThermoFisher, Carlsbad, CA, USA) with a 5% CO2 atmosphere.
# [1] = SRB cytotoxicity assay, hepatocyte HL-7702; assay type: cell-based, human; conditions: HL-7702 hepatocyte cell line; SRB assay, 48 h, human hepatocyte, mean ± SD; read-out: IC50 Cytotoxicity HL-7702
# Excerpt: as §1, §2
# HCT116 cells = test: DNA content analysis (cell cycle, flow cytometry) in HCT116; assay type: cell-based, human; conditions: 24 h
# Description: (§3) Cells were seeded in 6-well plates and allowed to adhere for 24 h at 37 °C. After treatment with different concentrations of the samples for another 24 h, the cells were harvested and washed with PBS, and then, the DNA content analysis was conducted with a cell cycle staining kit (Multi sciences, Hangzhou, China), according to the manufacturer’s instructions. The fluorescence intensity of the cells was measured by flow cytometry (Beckman CytoFlex, Miami, FL, USA).
# Figure S21 Results of flavonoid 5 induced cell cycle arrests in HCT116 cells. A)
# Representative images of flow-cytometry analysis of DNA content; B) Statistic analysis
# of cells in G1, S, and G2/M phase after treated with 5. After treatment with 2 and 1 μM
# compounds 5 for 24 h, the percentages of cell population in the G2/M phase
# respectively, which meant a potent G2/M cell cycle arrest caused by the treatment (P<
# 0.0001). In addition, after treatment with 0.5 μM compounds 5 for 24 h, the percentages
# that an apparent G1 or S phase arrest was induced after the treatment with a lower
# different from the vehicle control. Data are expressed as mean ± SD values from three
# (1 picture or pasted object on this page, not shown here)
# DLD-1 cells [2] = test: Western blot of cell cycle-related proteins in DLD-1; assay type: cell-based, human; conditions: 24 h
# Description: Cells treated with the compounds were harvested, and the total protein was isolated with lysis buffer (72 mM Tris pH 6.8, 2% SDS, 10% glycerol, and 0.1% bromophenol blue). The proteins were subjected to SDS-PAGE and transferred to a 0.45 μm PVDF membrane (Millipore, Burlington, USA). After being blocked with 5% non-fat milk in TBST, the membranes were washed and then incubated with specific primary antibodies (Cdk2 and Cdk6 were purchased from BBI Life Sciences Corporation, Shanghai, China; cyclin A, cyclin B, cyclin D, cyclin E, Cdk1, and Cdk4 were purchased from Proteintech, Rosemont, IL, USA) in TBST containing 2% non-fat milk overnight at 4 °C. After washing, the membranes were incubated with secondary horseradish peroxidase (HRP)-conjugated antibodies at room temperature for 1 h. The blot was visualized using an enhanced chemiluminescence assay kit (Meilunbio, Dalian, China) under a chemiluminescence detector (Tanon, Shanghai, China). The band density of the blot was quantified by the ImageJ software with at least three independent experiments.
# DNA Topo I = molecular target: T1, DNA Topo I (Homo sapiens, UniProt P11387); test: Topo I inhibition assay (DNA relaxation assay); assay type: biochemical; conditions: DNA relaxation assay, pBR322, mean ± SD
# T1 construct: purchased ThermoFisher, Waltham, MA, USA
# T1 sequence (P11387 1-765): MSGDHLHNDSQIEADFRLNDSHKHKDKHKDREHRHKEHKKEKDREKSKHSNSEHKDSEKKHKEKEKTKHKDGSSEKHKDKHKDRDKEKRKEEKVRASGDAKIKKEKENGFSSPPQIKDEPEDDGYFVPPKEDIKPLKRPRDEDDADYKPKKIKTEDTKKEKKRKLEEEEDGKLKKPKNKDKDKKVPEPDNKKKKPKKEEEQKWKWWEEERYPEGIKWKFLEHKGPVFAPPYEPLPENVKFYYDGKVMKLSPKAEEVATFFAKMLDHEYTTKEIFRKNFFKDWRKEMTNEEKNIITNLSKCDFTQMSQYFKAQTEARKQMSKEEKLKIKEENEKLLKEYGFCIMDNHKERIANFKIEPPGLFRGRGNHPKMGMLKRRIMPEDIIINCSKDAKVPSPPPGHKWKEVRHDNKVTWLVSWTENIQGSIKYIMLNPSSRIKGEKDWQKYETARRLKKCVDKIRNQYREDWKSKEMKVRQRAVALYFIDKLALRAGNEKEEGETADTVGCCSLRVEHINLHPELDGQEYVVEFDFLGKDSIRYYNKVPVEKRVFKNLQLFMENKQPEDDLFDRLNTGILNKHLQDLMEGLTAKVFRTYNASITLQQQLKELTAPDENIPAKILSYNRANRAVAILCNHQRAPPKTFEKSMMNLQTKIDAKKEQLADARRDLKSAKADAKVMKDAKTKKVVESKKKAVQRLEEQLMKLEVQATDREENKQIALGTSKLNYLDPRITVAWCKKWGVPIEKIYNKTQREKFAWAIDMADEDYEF
# Description: The DNA relaxation assay was adopted to investigate the compounds’ inhibitory activities on Topo I. Different concentrations of the compounds, dissolved and diluted in DMSO, were added into the relaxation buffer (50 mM Tris, pH 7.5, 50 mM KCl, 10 mM MgCl2, 0.1 mM EDTA, 0.5 Mm dithiothreitol, and 0.05 mg/mL bovine serum albumin) containing 0.2 U Topo I (ThermoFisher, Waltham, MA, USA) and incubated at room temperature for 10 min. After that, 500 ng supercoiled pBR322 plasmid DNA (ThermoFisher, Waltham, MA, USA) was added and then incubated at 37 °C for another 30 min. Finally, the reactions were stopped with a stopping solution (5% sodium dodecyl sulfate, 0.0025% bromophenol blue, and 25% glycerol), and the mixtures were applied onto 0.8% agarose gel and subjected to electrophoresis for 1.5 h in Tris-Acetate-EDTA buffer. After being stained with GelRed (Biotium, Fremont, CA, USA), the gel was imagined with the imaging system (Biotop, Shanghai, China). […] The band density of the supercoiled DNA was quantified by the ImageJ software (version 1.53a, National Institutes of Health, Bethesda, MD, USA), and the inhibition activity is expressed as the percentage inhibition and calculated by formula: Inhibition % = [(A − B)/(C − B)] × 100%, where A is the band density of the tested samples, B is the band density of the negative control, and C is the band density of the blank control.
# DLD-1 cells [3] = test: DNA content analysis (cell cycle, flow cytometry) in DLD-1; assay type: cell-based, human; conditions: 24 h
# Description: as §3
# A549 = test: SRB cytotoxicity assay, A549; assay type: cell-based; conditions: Homo sapiens, A549; SRB assay, 48 h, mean ± SD; read-out: IC50 Cytotoxicity A549
# Excerpt: as §1, §2
# DLD-1 = test: SRB cytotoxicity assay, DLD-1; assay type: cell-based; conditions: Homo sapiens, DLD-1; SRB assay, 48 h, mean ± SD; read-out: IC50 Cytotoxicity DLD-1
# Excerpt: as §1, §2
# HepG2 = test: SRB cytotoxicity assay, HepG2; assay type: cell-based; conditions: Homo sapiens, HepG2; SRB assay, 48 h, mean ± SD; read-out: IC50 Cytotoxicity HepG2
# Excerpt: as §1, §2
# MDA-MB-231 = test: SRB cytotoxicity assay, MDA-MB-231; assay type: cell-based; conditions: Homo sapiens, MDA-MB-231; SRB assay, 48 h, mean ± SD; read-out: IC50 Cytotoxicity MDA-MB-231
# Excerpt: as §1, §2
structure (smiles),measurement,setting,value
COc1ccc(-c2oc3cc(O)c(OC)c(O)c3c(=O)c2OC)cc1O [Compound 5],IC50,HCT116,0.79 ± 0.13 µM
same,IC50 at 48 h,[1],14.4 ± 0.45 µM
same,percentage of cells in the G1/S phase,"HCT116 cells; HCT116, 0.5 μM",91.23%
same,percentage of cell population in the G2/M phase,"HCT116 cells; HCT116, 1 μM",81.84%
same,percentage of cells in G1/S (combined) phase,"HCT116 cells; HCT116, 1 μM",18.13%
same,percentage of cell population in the G2/M phase,"HCT116 cells; HCT116, 2 μM",89.72%
same,percentage of cells in G1/S (combined) phase,"HCT116 cells; HCT116, 2 μM",10.16%
same,"expression levels of cyclin A, cyclin B, and CDK6","DLD-1 cells [2]; DLD-1, 2 μM",potently decreased
same,"expression of cylcin D, cyclin E, and CDK6","DLD-1 cells [2]; DLD-1, 1 and 0.5 μM",potent downregulation
same,IC50,DNA Topo I,146 ± 7.88 µM
same,percentage of cells in the G1/S phase,"DLD-1 cells [3]; DLD-1, 0.5 μM",85.30%
same,percentage of cells in the G1/S phase,"DLD-1 cells [3]; DLD-1, 1 μM",76.83%
same,percentage of cell population in the G2/M phase,"DLD-1 cells [3]; DLD-1, 2 μM",86.05%
same,percentage of cells in the G1/S (combined) phase,"DLD-1 cells [3]; DLD-1, 2 μM",13.46%
same,IC50,A549,2.16 ± 0.3 µM
same,IC50,DLD-1,0.6 ± 0.05 µM
same,IC50,HepG2,40.3 ± 11.1 µM
same,IC50,MDA-MB-231,39.7 ± 4.58 µM

# Source: paper PMC11314063, “Inhibition of DNA Topoisomerase Ι by Flavonoids and Polyacetylenes Isolated from Bidens pilosa L” (Molecules, 2024)
